Values joined by “and” are separate entries in the source; they are usually repeats but may differ in a detail not shown here. Equal values may be shown once.
Legend:
[1] = molecular target: NRAS WT (Homo sapiens (Human), UniProt P01111+P62937); test: Ras-Raf (BRAF RBD) disruption / FRET / MOA assay, NRAS WT; type: biochemical; conditions: read-out: IC50* NRAS WT FRET data
In short: (§1)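 TR-FRET disruption of nucleotide-loaded Ras binding to BRAF RBD via compound-driven ternary complex with cyclophilin A. Compound as 10-point 3-fold series from 30 μM final, 3 h at 25° C, then anti-His Eu-W1024 (10 nM) and anti-GST allophycocyanin (50 nM) for 1.5 h. IC50 from decreased FRET ratio versus DMSO.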

[2] = molecular target: KRAS G12D (Homo sapiens (Human), UniProt P01116+P62937, G12D); test: Ras-Raf (BRAF RBD) disruption / FRET / MOA assay, KRAS G12D; type: biochemical; conditions: Ras-Raf disruption/FRET/MOA assay; class symbols; read-out: KRAS G12D FRET data IC50
Chain of KRAS G12D (P01116-2 other isoform, or with tags, fused parts or gaps G12D): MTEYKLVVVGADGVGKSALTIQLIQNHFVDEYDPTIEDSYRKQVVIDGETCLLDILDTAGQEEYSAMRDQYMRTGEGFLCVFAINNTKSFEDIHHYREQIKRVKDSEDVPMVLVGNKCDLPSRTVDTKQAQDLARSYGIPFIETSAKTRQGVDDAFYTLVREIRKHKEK
Chain of KRAS G12D (P62937 whole entry): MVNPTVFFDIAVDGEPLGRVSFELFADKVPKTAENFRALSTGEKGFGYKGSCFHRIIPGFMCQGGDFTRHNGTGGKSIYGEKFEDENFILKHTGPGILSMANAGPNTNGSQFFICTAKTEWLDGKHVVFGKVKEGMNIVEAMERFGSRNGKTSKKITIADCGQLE
In short: (§2)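 Compounds, top final concentration 30 μM in 10-point 3-fold series, incubated 3 hours at 25° C with nucleotide-loaded Ras, cyclophilin A and BRAF RBD.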

[3] = molecular target: NRAS Q61K (Homo sapiens (Human), UniProt P01111+P62937, Q61K); test: Ras-Raf (BRAF RBD) disruption / FRET / MOA assay, NRAS Q61K; type: biochemical; conditions: NRAS Q61K; Ras-Raf disruption/FRET/MOA assay; read-out: IC50* NRAS Q61K FRET data
Chain of NRAS Q61K (P01111 whole entry Q61K): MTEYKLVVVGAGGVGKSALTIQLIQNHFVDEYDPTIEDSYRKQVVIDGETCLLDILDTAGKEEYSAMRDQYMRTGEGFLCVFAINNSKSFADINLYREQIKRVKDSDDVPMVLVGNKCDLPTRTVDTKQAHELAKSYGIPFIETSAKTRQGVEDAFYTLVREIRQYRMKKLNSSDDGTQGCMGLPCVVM
Chain of NRAS Q61K (P62937 whole entry): as the sequence (P62937 whole entry) above
In short: as §1

[4] = molecular target: NRAS G12C (Homo sapiens (Human), UniProt P01111+P62937, G12C); test: Ras-Raf (BRAF RBD) disruption / FRET / MOA assay, NRAS G12C; type: biochemical; conditions: read-out: IC50* NRAS G12C FRET data
Chain of NRAS G12C (P01111 whole entry G12C): as the sequence (P01111 whole entry Q61K) above, with G12C, K61Q counted along it
Chain of NRAS G12C (P62937 whole entry): as the sequence (P62937 whole entry) above
In short: as §2

[5] = test system: NCI-H358 (K-Ras G12C); test: CellTiter-Glo cell viability assay, NCI-H358; type: cell-based, human; conditions: Homo sapiens, NCI-H358, 120 h, NCI-H358, 5-day treatment; class symbols; read-out: Additional H358 Cell Viability assay data (K-Ras G12C, IC50)
In short: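 Compounds dispensed directly onto seeded K-Ras mutant cells; plates read on day 5 after ~30 min equilibration to room temperature, by CellTiter-Glo luminescence. Signal normalized as (sample/mean DMSO)×100, then fitted to a four-parameter logistic curve.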

[6] = molecular target: K-Ras G12C (Homo sapiens (Human), UniProt P01116+P62937, G12C); test: Ras-Raf (BRAF RBD) disruption / FRET / MOA assay, KRAS G12C; type: biochemical; conditions: KRAS G12C; Ras-Raf disruption/FRET/MOA assay; read-out: IC50* KRAS G12C FRET data
Chain of K-Ras G12C (P01116-2 other isoform, or with tags, fused parts or gaps G12C): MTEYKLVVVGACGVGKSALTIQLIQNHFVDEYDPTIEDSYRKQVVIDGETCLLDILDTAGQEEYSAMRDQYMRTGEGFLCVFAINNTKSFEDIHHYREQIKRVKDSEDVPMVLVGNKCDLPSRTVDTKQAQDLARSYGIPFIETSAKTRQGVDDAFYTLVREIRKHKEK
Chain of K-Ras G12C (P62937 whole entry): as the sequence (P62937 whole entry) above
In short: as §2

[7] = molecular target: KRAS G12V (Homo sapiens (Human), UniProt P01116+P62937, G12V); test: Ras-Raf (BRAF RBD) disruption / FRET / MOA assay, KRAS G12V; type: biochemical; conditions: read-out: IC50* KRAS G12V FRET data
Chain of KRAS G12V (P01116-2 other isoform, or with tags, fused parts or gaps G12V): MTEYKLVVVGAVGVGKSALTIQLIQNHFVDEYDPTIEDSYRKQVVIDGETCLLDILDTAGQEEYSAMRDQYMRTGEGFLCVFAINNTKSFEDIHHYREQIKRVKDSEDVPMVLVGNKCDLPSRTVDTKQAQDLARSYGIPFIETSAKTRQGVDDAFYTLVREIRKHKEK
Chain of KRAS G12V (P62937 whole entry): as the sequence (P62937 whole entry) above
In short: as §2

Chain of NRAS WT (P01111 whole entry): as the sequence (P01111 whole entry Q61K) above, with K61Q counted along it
Chain of NRAS WT (P62937 whole entry): as the sequence (P62937 whole entry) above

SMILES | IC50 [1] [nM] | IC50 [2] [nM] | IC50 [3] [nM] | IC50 [4] [nM] | IC50 [5] [nM] | IC50 [6] [nM] | IC50 [7]
CCn1c(-c2cccnc2[C@H](C)OC)c2c3cc(ccc31)-c1cccc(c1)C[C@H](NC(=O)C(COC1CN(C(=O)C#CC(C)(C)N(C)C)C1)C(C)C)C(=O)N1CCC[C@H](N1)C(=O)OCC(C)(C)C2 (stereo partly drawn) [Example A316, (2R)-2-(((1-(4-(dimethylamino)-4-methylpent-2-ynoyl)azetidin-3-yl)oxy)methyl)-N-((6^3S,4S)-1^1-ethyl-1^2-(2-((S)-1-methoxyethyl)pyridin-3-yl)-10,10-dimethyl-5,7-dioxo-6^1,6^2,6^3,6^4,6^5,6^6-hexahydro-1^1H-8-oxa-1(5,3)-indola-6(1,3)-pyridazina-2(1,3)-benzenacycloundecaphane-4-yl)-3-methylbutanamide] | > 10000 | > 10000 | > 10000 | < 10 | < 10 | < 10 | 1 µM to 10 µM and > 10 µM (2×)
CO[C@@H](C)c1ncccc1-c1c2c3cc(ccc3n1CC(F)(F)F)N1CCO[C@@H](C[C@H](NC(=O)[C@@H](COC3CN(C(=O)C#CC(C)(C)N(C)C)C3)C(C)C)C(=O)N3CCC[C@H](N3)C(=O)OCC(C)(C)C2)C1 (atropisomer, axis not shown) [Example A375, (2R)-2-(((1-(4-(dimethylamino)-4-methylpent-2-ynoyl)azetidin-3-yl)oxy)methyl)-N-((2^2S,6^3S,4S)-1^2-(2-((S)-1-methoxyethyl)pyridin-3-yl)-10,10-dimethyl-5,7-dioxo-1^1-(2,2,2-trifluoroethyl)-6^1,6^2,6^3,6^4,6^5,6^6-hexahydro-1^1H-8-oxa-2(4,2)-morpholina-1(5,3)-indola-6(1,3)-pyridazinacycloundecaphane-4-yl)-3-methylbutanamide] | 1000 to 10000 | > 10000 | > 10000 | < 10 | < 10 | < 10 | 1000 to 10000 nM
CCn1c(-c2cccnc2[C@H](C)OC)c2c3cc(ccc31)-c1cccc(c1)C[C@H](NC(=O)[C@H](C(C)C)N1CO[C@@]3(CCN(C(=O)C#CC(C)(C)N4CCC4)C3)C1=O)C(=O)N1CCC[C@H](N1)C(=O)OCC(C)(C)C2 (atropisomer, axis not shown) [Example A733] | > 10000 | > 10000 | > 10000 | 10 to 100 | < 10 | 10 to 100 | 1000 to 10000 nM
C=CC(=O)N1CCOC2(CCN(C(=O)N(C)[C@H](C(=O)N[C@H]3Cc4nc(cs4)-c4ccc5c(c4)c(c(-c4cccnc4[C@H](C)OC)n5CC)CC(C)(C)COC(=O)[C@@H]4CCCN(N4)C3=O)C(C)C)CC2)C1 (atropisomer, axis not shown) [Example A695] | 100 to 1000 | 1000 to 10000 | 100 to 1000 | 10 to 100 | 10 to 100 | 100 to 1000 | 100 to 1000 nM
CCn1c(-c2cccnc2[C@H](C)OC)c2c3cc(ccc31)-c1cnc(o1)C[C@H](NC(=O)[C@H](C(C)C)N(C)C(=O)[C@H]1CCN(C(=O)C#CC(C)(C)N(C)C)C1)C(=O)N1CCC[C@H](N1)C(=O)OCC(C)(C)C2 (atropisomer, axis not shown) [Example A692, (3S)-1-(4-(dimethylamino)-4-methylpent-2-ynoyl)-N-((2S)-1-(((6^3S,4S)-1^1-ethyl-1^2-(2-((S)-1-methoxyethyl)pyridin-3-yl)-10,10-dimethyl-5,7-dioxo-6^1,6^2,6^3,6^4,6^5,6^6-hexahydro-1^1H-8-oxa-2(5,2)-oxazola-1(5,3)-indola-6(1,3)-pyridazinacycloundecaphane-4-yl)amino)-3-methyl-1-oxobutan-2-yl)-N-methylpyrrolidine-3-carboxamide] | > 10000 | > 10000 | > 10000 | < 10 | < 10 | < 10 | 1000 to 10000 nM
C=CC(=O)N1CC[C@H](C(=O)N(C)[C@H](C(=O)N[C@H]2Cc3cccc(c3)-c3ccc4c(c3)c(c(-c3cc(CN(C)C)cnc3[C@H](C)OC)n4CC)CC(C)(C)COC(=O)[C@@H]3CCCN(N3)C2=O)C(C)C)C1 (atropisomer, axis not shown) [Example A522] | 1000 to 10000 | > 10000 | 1000 to 10000 | 100 to 1000 | < 10 | 100 to 1000 | 1000 to 10000 nM
CO[C@@H](C)c1ncccc1-c1c2c3cc(ccc3n1CC(F)(F)F)-c1cc(F)cc(c1)C[C@H](NC(=O)[C@@H](COC1CN(C(=O)C#CC(C)(C)N(C)C)C1)C(C)C)C(=O)N1CCC[C@H](N1)C(=O)OCC(C)(C)C2 (atropisomer, axis not shown) [Example A348] | 1000 to 10000 | > 10000 | > 10000 | < 10 | < 10 | < 10 | 1000 to 10000 nM
C=CC(=O)N1CC[C@H]2[C@@H](C1)CN2C(=O)N(C)[C@H](C(=O)N[C@H]1Cc2nc(cs2)-c2ccc3c(c2)c(c(-c2cccnc2[C@H](C)OC)n3CC)CC(C)(C)COC(=O)[C@@H]2CCCN(N2)C1=O)C(C)C (atropisomer, axis not shown) [Example A687] | 100 to 1000 | 1000 to 10000 | 10 to 100 | 100 to 1000 | 10 to 100 | 100 to 1000 | 100 to 1000 nM
C=CC(=O)N1CCC(C(=O)N(C)[C@H](C(=O)N[C@H]2Cc3cc(CF)cc(c3)-c3ccc4c(c3)c(c(-c3cccnc3[C@H](C)OC)n4CC(F)(F)F)CC(C)(C)COC(=O)[C@@H]3CCCN(N3)C2=O)C(C)C)C1 (stereo partly shown) [Example A659] | 100 to 1000 | 1000 to 10000 | 1000 to 10000 | 10 to 100 | < 10 | 10 to 100 | 100 to 1000 nM
C=CC(=O)N1CC[C@H](C(=O)N(C)[C@H](C(=O)N[C@H]2Cc3cc(O)cc(c3)-c3ccc4c(c3)c(c(-c3cnn5c3[C@@H](OC)CCC5)n4CC)CC(C)(C)COC(=O)[C@@H]3CCCN(N3)C2=O)C(C)C)C1 [Example A300] | 10 to 100 | 100 to 1000 | 100 to 1000 | < 10 | < 10 | < 10 | 10 to 100 nM
C=CC(=O)C1CC[C@H](C(=O)N(C)[C@H](C(=O)N[C@H]2Cc3cc(O)cc(c3)-c3ccc4c(c3)c(c(-c3cnn(C)c3[C@H](C)OC)n4CC)CC(C)(C)COC(=O)[C@@H]3CCCN(N3)C2=O)C(C)C)C1 (stereo partly shown) [Example A166] | 100 to 1000 | 1000 to 10000 | 1000 to 10000 | 10 to 100 | < 10 | 10 to 100 | 100 to 1000 nM
CCn1c(-c2cccnc2[C@H](C)OC)c2c3cc(ccc31)-c1cccc(c1)C[C@H](NC(=O)[C@@H](COC1CN(C(=O)C#CC(C)(C)N3CCC3)C1)C(C)C)C(=O)N1CCC[C@H](N1)C(=O)OCC(C)(C)C2 (atropisomer, axis not shown) [Example A346] | > 10000 | > 10000 | > 10000 | 10 to 100 | < 10 | < 10 | 1000 to 10000 nM
C=CC(=O)N(C)CCC1CCN(C(=O)N(C)[C@H](C(=O)N[C@H]2Cc3nc(cs3)-c3ccc4c(c3)c(c(-c3cccnc3[C@H](C)OC)n4CC)CC(C)(C)COC(=O)[C@@H]3CCCN(N3)C2=O)C(C)C)CC1 (atropisomer, axis not shown) [Example A621] | 10 to 100 | 100 to 1000 | 10 to 100 | 10 to 100 | < 10 | 10 to 100 | 10 to 100 nM

Source: patent publication US11566007B2, “Ras inhibitors” (Revolution Medicines, Inc., priority 2019, dated 2023)
